Measured values as given in US9422247B2, “Fe(III) complex compounds for the treatment and prophylaxis of iron deficiency symptoms and iron deficiency anemias” (Vifor (International) AG, priority 2011, dated 2016).

Tested on: Male NMRI (SPF) mice
Assay: iron utilization in mouse model (low-iron diet)
Format: in vivo
Settings: iron-deficient male NMRI mice; stomach tube, 2 mg iron/kg body weight/day, days 1-5 and 8-12; utilization on day 15 calculated from hemoglobin and body weight increase
Experimental: The excellent Fe utilizations that can be accomplished through the Fe complexes according to the invention were measured by means of the following mouse model. Male NMRI (SPF) mice (approximately 3 weeks old) were fed a low-iron diet (approx. 5 ppm iron) for approximately 3 weeks. The iron complexes were then administered to them by means of a stomach tube (2 mg iron/kg body weight/day) for 2 times 5 days, with an interruption of 2 days (days 1-5 and 8-12). Utilization on day 15 was calculated from the hemoglobin increase and the body weight increase in accordance with the formula […] Control group, utilized from food, (mg Fe)

Point of comparison: “Tris-(4-methyl-5,6,7,8-tetrahydrochinazoline-2-ol-3-oxide)-iron(III) complex [Example 11]”, “Utilization n 15 d (abs. %)” value 74 abs. %. Against it:
- Tris-(5,6-dimethylpyrimidine-2-ol 1-oxide)-iron(III) complex [Example 16] — lower, 57 abs. %
- Tris-(4,6-diethylpyrimidine-2-ol-1-oxide)-iron(III) complex [Example 4] — higher, 76 abs. %
- Tris-(6-ethyl-4-methylpyrimidin-2-ol-1-oxide)-iron(III) complex [Example 9] — lower, 69 abs. %
- Tris-(4-methylpyrimidine-2-ol-oxide)-iron(III) complex [Example 2] — higher, 80 abs. %
- Tris-(4,6-dimethylpyrimidine-2-ol-1-oxide)-iron(III) complex [Example 3] — the same, 74 abs. %
- Tris-(4-ethylpyrimidine-2-ol-1-oxide)-iron(III) complex [Example 8] — higher, 82 abs. %
- Tris-(4-propane-2-yl)pyrimidine-2-ol-1-oxide)-iron(III) complex [Example 12] — lower, 55 abs. %
- Tris-(pyrimidine-2-ol-1-oxide)-iron(III) complex [Example 1] — higher, 89 abs. %
- Tris-(4,5,6-trimethylpyrimidine-2-ol-1-oxide)-iron(III) complex [Example 6] — lower, 70 abs. %
- Tris-(5-chloro-4,6-dimethylpyrimidine-2-ol-1-oxide)-iron(III) complex [Example 7] — lower, 64 abs. %
- Tris-(4-methyl-6,7-dihydro-5H-cyclopenta[d]pyrimidin-2-ol-1-oxide)-iron(III) complex [Example 10] — lower, 70 abs. %
